What was measured:
[1] = system: MCF-7 cells; assay: Breast cancer cell proliferation in fructose versus glucose (MTT assay); assay type: cell-based; conditions: 5 mM fructose compared to 5 mM glucose, 8-72 h
Method: (§1) Estrogen receptor (ER) positive MCF-7, and ER negative MDA-MB231 cells were plated in 5 mM fructose or glucose for times between 8-72 h, and proliferative rates measured using MTT assay. *, p<0.05; **, p<0.01.
(§2) FIG. 5 depicts fructose-mediated increased breast cancer proliferation in accordance with an embodiment of the present invention. ER positive MCF-7, and ER negative MDA-MB231 cells were plated in a range of fructose or glucose concentrations (5-25 mM) for 72 h, after which proliferative rates were measured using an MTT assay. *, p<0.05 for concentrations between 5-25 mM fructose versus glucose.
(§3) Standard media for breast cancer cell culture contain either 5-7 mM (low) and 12-25 mM (high) glucose concentrations. Estrogen receptor (ER) positive MCF-7, and ER negative MDA-MB231 cells were cultured overnight in 2 mM glucose standard DMEM medium containing 10% fetal bovine serum prior to incubation for periods between 8, and 72 hours in standard DMEM medium containing 10% fetal bovine serum, and 5 mM glucose or 5 mM fructose.
(§4) Proliferative rates were then measured in replicate (minimum of 6) aliquot wells of the breast cancer cells grown in glucose, or fructose containing medium. […] In separate experiments, proliferative rates of the MCF-7, and MDA-MB231 breast cancer cells were compared following culture in a range of fructose, and glucose concentrations (2-25 mM) for 72 hours.

[2] = system: MDA-MB231 cells; assay: as above; assay type: cell-based; conditions: 5 mM fructose compared to 5 mM glucose, 8-72 h
Method: as §1, §2, §3, §4

[3] = Serum fructose in normal volunteers after two cans of soda (fructose dehydrogenase assay); assay type: in vivo, human; conditions: 3 normal volunteers
Method: FIG. 37 depicts fasting serum fructose and glucose levels in patients with pancreatic cancer and in normal volunteers in accordance with an embodiment of the present invention. (a) Fasting serum fructose and glucose levels in 6 patients with pancreatic cancer on the morning of resection. (b) Serum fructose, and glucose levels (Mean±SEM) in 3 normal volunteers after a 10 h fast, followed by ingestion of two cans of soda, containing 76 g of carbohydrate in the form of high fructose corn syrup (55% fructose, 45% glucose).
The normal circulating concentrations of fructose are unknown. […] Briefly, aliquots (20 μl) of fructose standards (0.1, 0.5, 1, 2, 4, 6, and 8 mM) or unknown serum samples were mixed with 5 μl of a stock solution (125 U/ml) of the enzyme fructose dehydrogenase (Sigma) in 175 μl citric acid (0.05 M) phosphate (0.09 M) buffer (pH 4.5), and 20 μl of 3-(4,5-dimethylthiazol-2yl)-2,5-diphenyltetrazolium bromide (MTT), and phenazine methosulfate (Promega), incubated for 30 minutes, after which absorbance at 570 nm was recorded in a 96-well spectrophotometer. […] As the first analysis, in accordance with institutional review board guidelines, the inventors obtained 32 serum samples randomly selected from anonymous inpatients at Cedars-Sinai Medical Center. The inventors also measured glucose in these same samples using standard glucose oxidase based methods. […]

[4] = system: fructokinase-1 (FK-1) mRNA; assay: RT-PCR of fructokinase-1 mRNA in MCF-7 cells; assay type: cell-based; conditions: MCF-7 grown in 5 mM fructose vs 2 mM and 5 mM glucose
Method: FIG. 7 depicts fructokinase-1 expression in accordance with an embodiment of the present invention. Breast cancer cells (MCF-7) express Fructokinase-1 (FK-1). RT-PCR was used to measure fructokinase-1 (FK-1) mRNA levels in MCF-7 cells following growth in 2 mM glucose, 5.5 mM glucose, or 5.5 mM fructose for 24 h, and in two human breast cancers (BT 1 & 2), and matched adjacent normal breast tissue (NB 1 & 2) from the same individual. […] Human liver, and exclusion of template served as positive and negative controls.
The inventors used RT-PCR analysis and specific primer pairs (SEQ ID NO: 1 (3′[…]), SEQ ID NO: 2 (5′[…])) to examine fructokinase-1 (FK-1) mRNA levels in glucose- or fructose-treated breast cancer cells. […] Also examined were FK-1 mRNA levels in two surgically resected human breast cancers, and paired adjacent normal breast tissue from the same individual. FK-1 mRNA was detectable in both normal and tumor tissue.

O=C(CO)[C@@H](O)[C@H](O)[C@H](O)CO [fructose]
proliferative rates [1]: higher proliferative rates
proliferative rates [2]: higher proliferative rates
mean serum fructose levels, peak ([3]; 30 minutes after two sodas): 17 mM
serum fructose levels ([3]; for the 2 hour duration of blood sampling): greater than 5 mM
FK-1 mRNA levels [4]: highest FK-1 levels

From patent US8241607B2, “Use of fructose-based compounds for the diagnosis of cancer” (priority 2005, dated 2012)
